pEC50: −log10 of the molar value. Structures can show the parent of a compound that is named as a salt. Where two headings read alike, the source gives them in different places.
System: IL-23p19
Test: LPS Induced IL23p19 in THP-1 Cells (with IFNγ Primed) Assay
Assay type: cell-based, human
Conditions: IFNγ (50 ng/mL) primed, 1 hour compound pre-incubation, LPS 1 ug/mL 18 hours, 10 pt, read-out: IL23-p19 ELISA, THP1-IFNy, LPS, 10 pt EC50
Description: LPS Induced IL23p19 in THP-1 Cells (with IFNγ Primed) Assay
Method THP-1 Cells Stimulation:
On day 1, 50K/well THP-1 cells were seeded and primed with IFNγ (50 ng/mL) in 384-well plates for about 18 hours in RPMI media with 10% FBS. […] 50 μL/well 2× compound was added to 50 μL/well THP-1 cells (with IFNγ primed) in duplicate in 384 well tissue culture plates. […] Day 3, after stimulation for 18 hours at 37° C., 5% CO2, the assay plate was centrifuged and 70 μL/well supernatant was harvested. IL-23p19 protein in 70 μL/well of supernatant was measured by sandwich ELISA, and 25 μl/well Cell Titer Glo reagent was added to the remaining cells to measure compound toxicity.
Human IL-23p19 Sandwich ELISA:
Maxisorp immuno ELISA plates were pre-coated with 25 μL/well of anti-IL-23p19 capture antibody (2.5 ug/mL) in PBS overnight at room temperature. After washing with 1×PBST, the plates were blocked using 100 μL/well of 1% BSA in PBS for 2 hours at room temperature. The plates were washed three times with 1×PBST and 70 μL/well supernatant were added. The plates were incubated at room temperature for 2 hours with shaking and washed three times with 1×PBST. 25 μL/well of biotin labeled anti-IL-12(p40/p70) detection antibody (100 ng/mL) in PBS with 1% BSA was added and the plates were incubated at room temperature for 2 hours with shaking. After washing three times with 1×PBST, 25 μL/well of streptavidin-HRP (1:200) in PBS with 1% BSA was added and the plates were incubated at room temperature for 20 minutes with shaking. The plates were washed three times with 1×PBST and 25 μL/well of Super Signal ELISA Pico Chemiluminescent Substrate were added. The plates were read with a luminometer, and the chemiluminescence values were entered into Athena (Rigel) for curve fitting, EC50 calculation, and database storage.

[1] = Homo sapiens, THP-1, THP-1 cells

| Structure (SMILES) | pEC50 [1] | pEC50 (THP-1 cells, dihydrochloride) |
| --- | --- | --- |
| COCCn1cc(NC(=O)c2cccc(-c3ccncc3)n2)c(-c2ccccn2)n1 [Compound I-107, N-(1-(2-methoxyethyl)-3-(pyridin-2-yl)-1H-pyrazol-4-yl)-[2,4′-bipyridine]-6-carboxamide formate] | 5.45 | – |
| COCCOCCn1cc(NC(=O)c2cccc(-c3ccncc3)n2)c(-c2ccccn2)n1 [Compound I-140, N-(1-(2-(2-methoxyethoxy)ethyl)-3-(pyridin-2-yl)-1H-pyrazol-4-yl)-[2,4′-bipyridine]-6-carboxamide formate] | 4.96 | – |
| COc1ccc(-c2cccc(C(=O)Nc3cn(C)nc3-c3ccccn3)n2)cn1 [Compound I-20, 6′-methoxy-N-(1-methyl-3-(pyridin-2-yl)-1H-pyrazol-4-yl)-[2,3′-bipyridine]-6-carboxamide] | 3.89 | – |
| O=C(O)c1cncc(-c2cccc(C(=O)Nc3cn(C4COC4)nc3-c3ccccn3)n2)c1 [Compound I-135, 6-((1-(oxetan-3-yl)-3-(pyridin-2-yl)-1H-pyrazol-4-yl)carbamoyl)-[2,3′-bipyridine]-5′-carboxylic acid] | 4.38 | – |
| Cn1cc(NC(=O)c2cccc(-c3cncc(F)c3)n2)c(-c2ccccn2)n1 [Compound I-3, 5′-fluoro-N-(1-methyl-3-(pyridin-2-yl)-1H-pyrazol-4-yl)-[2,3′-bipyridine]-6-carboxamide] | 4.67 | – |
| Cn1cc(NC(=O)c2cccc(-c3cncc(C#N)c3)n2)c(-c2ccccn2)n1 [Compound I-4, 5′-cyano-N-(1-methyl-3-(pyridin-2-yl)-1H-pyrazol-4-yl)-[2,3′-bipyridine]-6-carboxamide] | 2.72 | – |
| COCCOCCn1cc(NC(=O)c2cccc(-c3ccncc3C)n2)c(-c2ccccn2)n1 [Compound I-145, N-(1-(2-(2-methoxyethoxy)ethyl)-3-(pyridin-2-yl)-1H-pyrazol-4-yl)-3′-methyl-[2,4′-bipyridine]-6-carboxamide formate] | 4.25 | – |
| Cn1cc(NC(=O)c2cccc(C3=CCN(C(=O)OC(C)(C)C)CC3)n2)c(-c2ccccn2)n1 [Compound I-61, tert-butyl 6-((1-methyl-3-(pyridin-2-yl)-1H-pyrazol-4-yl)carbamoyl)-3′,6′-dihydro-[2,4′-bipyridine]-1′(2′H)-carboxylate] | 4.65 | – |
| Cn1cc(NC(=O)c2cncc(-c3cnn(CC4CC4)c3)c2)c(-c2ccccn2)n1 [Compound I-109, 5-(1-(cyclopropylmethyl)-1H-pyrazol-4-yl)-N-(1-methyl-3-(pyridin-2-yl)-1H-pyrazol-4-yl)nicotinamide] | 4.97 | – |
| Cn1cc(NC(=O)c2cccc(C3=CCNCC3)n2)c(-c2ccccn2)n1 [Compound I-62, N-(1-methyl-3-(pyridin-2-yl)-1H-pyrazol-4-yl)-1′,2′,3′,6′-tetrahydro-[2,4′-bipyridine]-6-carboxamide] | 4.55 | – |
| Cn1cc(NC(=O)c2cccc(-c3ccnc(C(N)=O)c3)n2)c(-c2ccccn2)n1 [Compound I-41, N6-(1-methyl-3-(pyridin-2-yl)-1H-pyrazol-4-yl)-[2,4-bipyridine]-2′,6-dicarboxamide] | 3.93 | – |
| Cn1cc(NC(=O)c2cccc(-c3ccncc3)n2)c(-c2ccccn2)n1 [Compound I-160, N-(1-methyl-3-(pyridin-2-yl)-1H-pyrazol-4-yl)-[2,4′-bipyridine]-6-carboxamide 2,2,2-trifluoroacetate] | 3.82 | – |
| Cn1cc(NC(=O)c2cccc(-c3cncc(C(F)(F)F)c3)n2)c(-c2ccccn2)n1 [Compound I-17, N-(1-methyl-3-(pyridin-2-yl)-1H-pyrazol-4-yl)-5′-(trifluoromethyl)-[2,3′-bipyridine]-6-carboxamide] | 4.23 | – |
| Cn1cc(NC(=O)c2nccc(Nc3cn(C)nc3-c3ccccn3)n2)c(-c2ccccn2)n1 [Compound I-118, N-(1-methyl-3-(pyridin-2-yl)-1H-pyrazol-4-yl)-4-((1-methyl-3-(pyridin-2-yl)-1H-pyrazol-4-yl)amino)pyrimidine-2-carboxamide] | 3.88 | – |
| Cn1cc(NC(=O)c2cccc(-c3ccc4[nH]ccc4c3)n2)c(-c2ccccn2)n1 [Compound I-46, 6-(1H-indol-5-yl)-N-(1-methyl-3-(pyridin-2-yl)-1H-pyrazol-4-yl)picolinamide] | 5.46 | – |
| Cn1cc(NC(=O)c2cccc(-c3cccc(N)c3)n2)c(-c2ccccn2)n1 [Compound I-57, 6-(3-aminophenyl)-N-(1-methyl-3-(pyridin-2-yl)-1H-pyrazol-4-yl)picolinamide] | 5.28 | – |

| Structure (SMILES) | pEC50 [1] | pEC50 (THP-1 cells, dihydrochloride) |
| --- | --- | --- |
| Cn1cc(NC(=O)c2cccc(-c3cncc(OCC(F)(F)F)c3)n2)c(-c2ccccn2)n1 [Compound I-24, N-(1-methyl-3-(pyridin-2-yl)-1H-pyrazol-4-yl)-5′-(2,2,2-trifluoroethoxy)-[2,3′-bipyridine]-6-carboxamide] | 3.99 | – |
| Cn1cc(NC(=O)c2cccc(-c3cncc(C(C)(C)O)c3)n2)c(-c2ccccn2)n1 [Compound I-14, 5′-(2-hydroxypropan-2-yl)-N-(1-methyl-3-(pyridin-2-yl)-1H-pyrazol-4-yl)-[2,3′-bipyridine]-6-carboxamide] | 5.82 | – |
| Cn1cc(NC(=O)c2nccc(Nc3cc[nH]n3)n2)c(-c2ccccn2)n1 [Compound I-128, 4-((1H-pyrazol-3-yl)amino)-N-(1-methyl-3-(pyridin-2-yl)-1H-pyrazol-4-yl)pyrimidine-2-carboxamide] | 4.62 | – |
| Cc1cccc(-c2cccc(C(=O)Nc3cn(C)nc3-c3ccccn3)n2)c1 [Compound I-49, N-(1-methyl-3-(pyridin-2-yl)-1H-pyrazol-4-yl)-6-(m-tolyl)picolinamide] | 4.14 | – |
| Cn1cc(NC(=O)c2cccc(-c3ccc[nH]3)n2)c(-c2ccccn2)n1 [Compound I-10, N-(1-methyl-3-(pyridin-2-yl)-1H-pyrazol-4-yl)-6-(1H-pyrrol-2-yl)picolinamide] | 3.18 | – |
| Cn1cc(NC(=O)c2cccc(-c3cncc(N4CCOCC4)c3)n2)c(-c2ccccn2)n1 [Compound I-37, N-(1-methyl-3-(pyridin-2-yl)-1H-pyrazol-4-yl)-5′-morpholino-[2,3′-bipyridine]-6-carboxamide] | 6.23 | – |
| COCCn1cc(NC(=O)c2cccc(-c3cncc(C)c3)n2)c(-c2ccccn2)n1 [Compound I-168, N-(1-(2-methoxyethyl)-3-(pyridin-2-yl)-1H-pyrazol-4-yl)-5′-methyl-[2,3′-bipyridine]-6-carboxamide] | 6.27 | – |
| O=C(Nc1cn(C(CO)CO)nc1-c1ccccn1)c1cccc(-c2cn[nH]c2)n1 [Compound I-127, N-(1-(1,3-dihydroxypropan-2-yl)-3-(pyridin-2-yl)-1H-pyrazol-4-yl)-6-(1H-pyrazol-4-yl)picolinamide] | 4.74 | – |
| Cn1cc(NC(=O)c2cccc(-c3ccnc(NCC4CC4)c3)n2)c(-c2ccccn2)n1 [Compound I-159, 2′-((cyclopropylmethyl)amino)-N-(1-methyl-3-(pyridin-2-yl)-1H-pyrazol-4-yl)-[2,4′-bipyridine]-6-carboxamide formate] | 4.83 | – |
| Cc1n[nH]cc1Nc1ccnc(C(=O)Nc2cn(C)nc2-c2ccccn2)n1 [Compound I-129, 4-((3-methyl-1H-pyrazol-4-yl)amino)-N-(1-methyl-3-(pyridin-2-yl)-1H-pyrazol-4-yl)pyrimidine-2-carboxamide] | 4.14 | – |
| Cc1cncc(-c2cccc(C(=O)Nc3cn(C)nc3N3CCCC3)n2)c1 [Compound I-75, 5′-methyl-N-(1-methyl-3-(pyrrolidin-1-yl)-1H-pyrazol-4-yl)-[2,3′-bipyridine]-6-carboxamide] | 4.80 | – |
| Cn1cc(NC(=O)c2cccc(-c3cncnc3)n2)c(-c2ccccn2)n1 [Compound I-5, N-(1-methyl-3-(pyridin-2-yl)-1H-pyrazol-4-yl)-6-(pyrimidin-5-yl)picolinamide] | 4.40 | – |
| COCCOCCn1cc(NC(=O)c2cccc(-c3ccncc3F)n2)c(-c2ccccn2)n1 [Compound I-144, 3′-fluoro-N-(1-(2-(2-methoxyethoxy)ethyl)-3-(pyridin-2-yl)-1H-pyrazol-4-yl)-[2,4′-bipyridine]-6-carboxamide formate] | 4.94 | – |
| Cc1cncc(-c2cccc(C(=O)Nc3cn(C)nc3-c3ccc(N4CCOCC4)cn3)n2)c1 [Compound I-176, 5′-methyl-N-(1-methyl-3-(5-morpholinopyridin-2-yl)-1H-pyrazol-4-yl)-[2,3′-bipyridine]-6-carboxamide dihydrochloride] | – | 4.55 |
| Cc1cc(-c2cccc(C(=O)Nc3cn(C)nc3-c3ccccn3)n2)ccn1 [Compound I-15, 2′-methyl-N-(1-methyl-3-(pyridin-2-yl)-1H-pyrazol-4-yl)-[2,4′-bipyridine]-6-carboxamide] | 4.20 | – |

From patent publication US10947216B2, “Amide compounds and method for making and using” (Rigel Pharmaceuticals, Inc., priority 2016, dated 2021)
